Columns and labels:
Assay type in all cases: cell-based
[1] = biological target: T1, human TLR9 (Homo sapiens, UniProt Q9NR96); assay: TLR9 inhibition reporter assay (HEK-Blue, SEAP); conditions: HEK-Blue cells overexpressing human TLR9, ODN2006 5 nM, 22 hour incubation
T1 construct: host or cells: HEK-Blue cells
T1 sequence (Q9NR96 26-1032): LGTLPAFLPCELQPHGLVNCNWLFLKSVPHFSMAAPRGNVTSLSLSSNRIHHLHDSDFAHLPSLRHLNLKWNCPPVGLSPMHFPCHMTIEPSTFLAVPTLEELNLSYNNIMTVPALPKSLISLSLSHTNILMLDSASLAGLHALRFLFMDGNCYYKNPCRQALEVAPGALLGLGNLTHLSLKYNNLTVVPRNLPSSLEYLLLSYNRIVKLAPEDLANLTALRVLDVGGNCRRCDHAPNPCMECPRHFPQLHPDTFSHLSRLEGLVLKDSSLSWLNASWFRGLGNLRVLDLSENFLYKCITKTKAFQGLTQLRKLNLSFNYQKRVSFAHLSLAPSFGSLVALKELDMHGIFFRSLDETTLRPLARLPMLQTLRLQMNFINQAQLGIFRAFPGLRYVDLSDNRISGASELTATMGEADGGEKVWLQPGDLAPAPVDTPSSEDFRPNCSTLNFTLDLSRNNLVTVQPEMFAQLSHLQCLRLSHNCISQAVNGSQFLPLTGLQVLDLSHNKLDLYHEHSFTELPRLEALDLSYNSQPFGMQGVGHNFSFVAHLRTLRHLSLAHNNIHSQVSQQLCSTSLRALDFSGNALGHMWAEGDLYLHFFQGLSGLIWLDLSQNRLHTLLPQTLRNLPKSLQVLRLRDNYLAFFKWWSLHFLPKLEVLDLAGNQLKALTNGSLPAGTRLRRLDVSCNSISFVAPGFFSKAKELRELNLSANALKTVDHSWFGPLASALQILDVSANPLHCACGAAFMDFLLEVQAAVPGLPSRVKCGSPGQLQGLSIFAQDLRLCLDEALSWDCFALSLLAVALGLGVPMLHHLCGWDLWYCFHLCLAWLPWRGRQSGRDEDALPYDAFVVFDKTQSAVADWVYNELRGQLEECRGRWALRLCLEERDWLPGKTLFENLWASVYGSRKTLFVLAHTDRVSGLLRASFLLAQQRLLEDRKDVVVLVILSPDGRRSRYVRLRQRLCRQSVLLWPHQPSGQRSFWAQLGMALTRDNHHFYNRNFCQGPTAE
Method: (§1) TLR7/8/9 Inhibition Reporter Assays
(§2) HEK-Blue™-cells (Invivogen) overexpressing human TLR7, TLR8 or TLR9 receptors were used for screening inhibitors of these receptors using an inducible SEAP (secreted embryonic alkaline phosphatase) reporter gene under the control of the IFN-β minimal promoter fused to five NF-κB and AP-1-binding sites. Briefly, cells are seeded into Greiner 384 well plates (15000 cells per well for TLR7, 20,000 for TLR8 and 25,000 for TLR9) and then treated with test compounds in DMSO to yield a final dose response concentration range of 0.05 nM-50 μM. After a 30 minute compound pre-treatment at room temperature, the cells are then stimulated with a TLR7 ligand (gardiquimod at a final concentration of 7.5 μM), TLR8 ligand (R848 at a final concentration of 15.9 μM) or TLR9 ligand (ODN2006 at a final concentration of 5 nM) to activate NF-κB and AP-1 which induce the production of SEAP. After a 22 hour incubation at 37° C., 5% CO2, SEAP levels are determined with the addition of HEK-Blue™ Detection reagent (Invivogen), a cell culture medium that allows for detection of SEAP, according to manufacturer's specifications. The percent inhibition is determined as the % reduction in the HEK-Blue signal present in wells treated with agonist plus DMSO alone compared to wells treated with a known inhibitor.

[2] = biological target: T2, human TLR7 (Homo sapiens, UniProt Q9NYK1); assay: TLR7 inhibition reporter assay (HEK-Blue, SEAP); conditions: HEK-Blue cells overexpressing human TLR7, gardiquimod 7.5 μM, 22 hour incubation
T2 construct: host or cells: HEK-Blue cells
T2 sequence (Q9NYK1 27-1049): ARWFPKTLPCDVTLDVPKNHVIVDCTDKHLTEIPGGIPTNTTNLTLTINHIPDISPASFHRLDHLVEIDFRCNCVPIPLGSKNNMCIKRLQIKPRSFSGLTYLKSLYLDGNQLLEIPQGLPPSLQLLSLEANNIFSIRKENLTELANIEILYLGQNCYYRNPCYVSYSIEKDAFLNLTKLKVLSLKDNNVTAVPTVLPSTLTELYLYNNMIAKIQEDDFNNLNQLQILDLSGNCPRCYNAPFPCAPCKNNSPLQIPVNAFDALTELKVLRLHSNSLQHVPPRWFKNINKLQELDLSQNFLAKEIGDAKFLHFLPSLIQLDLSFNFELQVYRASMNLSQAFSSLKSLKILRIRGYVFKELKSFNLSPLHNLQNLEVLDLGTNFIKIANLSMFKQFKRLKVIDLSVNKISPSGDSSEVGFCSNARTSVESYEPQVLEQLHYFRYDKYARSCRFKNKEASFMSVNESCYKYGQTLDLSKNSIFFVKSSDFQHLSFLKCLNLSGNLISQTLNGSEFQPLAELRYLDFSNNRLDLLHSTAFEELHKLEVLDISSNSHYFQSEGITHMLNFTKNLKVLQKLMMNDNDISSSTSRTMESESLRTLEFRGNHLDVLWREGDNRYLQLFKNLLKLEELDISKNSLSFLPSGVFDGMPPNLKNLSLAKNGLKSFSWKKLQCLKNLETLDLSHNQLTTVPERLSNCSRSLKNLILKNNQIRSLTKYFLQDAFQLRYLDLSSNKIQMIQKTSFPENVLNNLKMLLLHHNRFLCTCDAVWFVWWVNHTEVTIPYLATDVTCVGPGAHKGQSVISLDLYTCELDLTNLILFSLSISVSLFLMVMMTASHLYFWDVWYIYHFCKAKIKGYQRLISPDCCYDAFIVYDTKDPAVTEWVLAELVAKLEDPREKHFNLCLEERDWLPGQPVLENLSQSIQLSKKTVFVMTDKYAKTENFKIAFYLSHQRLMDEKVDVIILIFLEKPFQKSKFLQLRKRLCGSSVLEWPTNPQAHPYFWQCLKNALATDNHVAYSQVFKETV
Method: as §1, §2

[3] = biological target: T3, human TLR8 (Homo sapiens, UniProt Q9NR97); assay: TLR8 inhibition reporter assay (HEK-Blue, SEAP); conditions: HEK-Blue cells overexpressing human TLR8, R848 15.9 μM, 22 hour incubation
T3 construct: host or cells: HEK-Blue cells
T3 sequence (Q9NR97 27-1041): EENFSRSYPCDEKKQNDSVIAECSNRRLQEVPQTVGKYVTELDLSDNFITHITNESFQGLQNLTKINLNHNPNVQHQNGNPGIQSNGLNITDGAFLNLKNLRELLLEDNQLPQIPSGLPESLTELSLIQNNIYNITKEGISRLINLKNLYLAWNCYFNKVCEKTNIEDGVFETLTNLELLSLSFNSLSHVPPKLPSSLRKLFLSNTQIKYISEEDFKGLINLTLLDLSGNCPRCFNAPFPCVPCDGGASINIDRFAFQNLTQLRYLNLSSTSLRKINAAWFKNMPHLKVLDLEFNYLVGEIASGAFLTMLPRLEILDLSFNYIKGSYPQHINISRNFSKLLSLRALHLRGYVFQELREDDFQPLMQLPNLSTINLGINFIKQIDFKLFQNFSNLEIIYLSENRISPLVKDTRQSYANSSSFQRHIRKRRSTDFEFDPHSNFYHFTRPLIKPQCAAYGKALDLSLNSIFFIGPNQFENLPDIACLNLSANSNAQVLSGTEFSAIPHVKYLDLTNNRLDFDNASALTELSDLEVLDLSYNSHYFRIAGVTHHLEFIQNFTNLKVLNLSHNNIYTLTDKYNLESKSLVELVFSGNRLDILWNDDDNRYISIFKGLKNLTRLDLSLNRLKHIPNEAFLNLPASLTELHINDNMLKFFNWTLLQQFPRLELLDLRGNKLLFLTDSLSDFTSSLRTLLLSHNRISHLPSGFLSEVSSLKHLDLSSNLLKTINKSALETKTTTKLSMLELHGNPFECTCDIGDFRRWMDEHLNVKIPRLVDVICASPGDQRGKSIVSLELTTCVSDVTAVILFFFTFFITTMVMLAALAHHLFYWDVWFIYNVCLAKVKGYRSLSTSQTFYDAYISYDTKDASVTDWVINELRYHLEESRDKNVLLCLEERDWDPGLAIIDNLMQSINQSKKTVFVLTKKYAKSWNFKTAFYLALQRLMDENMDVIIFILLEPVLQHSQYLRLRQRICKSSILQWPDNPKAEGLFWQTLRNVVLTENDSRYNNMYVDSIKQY
Method: as §1, §2

Molecule | IC50 [1] [nM] | IC50 [2] [nM] | IC50 [3] [nM]
Cc1c(-c2[nH]c3ccc(C4CCNCC4)cc3c2C(C)C)cn2cnnc2c1C [Example 8, 6-(3-isopropyl-5-(piperidin-4-yl)-1H-indol-2-yl)-7,8-dimethyl-[1,2,4]triazolo[4,3-a] pyridine] | 1880 | 5.2 | 29.6
COCc1nnc2ccc(-c3[nH]c4ccc(C5CCNCC5)cc4c3C(C)C)cn12 [Example 7, 6-(3-isopropyl-5-(piperidin-4-yl)-1H-indol-2-yl)-3-(methoxymethyl)-[1,2,4]triazolo[4,3-a]pyridine] | 3230 | 156 | 1230
1-(4-(3-isopropyl-2-(8-methoxy-5-methyl-[1,2,4]triazolo[4,3-a)pyridin-6-yl)-1H-indol-5-yl)piperidin-1-yl)-2-methylpropan-2-ol [Example 62] | 381 | 1.2 | 6.4
Cc1c(-c2[nH]c3ccc(C4C[C@H]5CC[C@@H](C4)N5CC4(C)COC4)cc3c2C(C)C)cn2cnnc2c1C (single isomer, unassigned) [Example 120] | 3800 | 6.7 | 45.9
COc1cc(-c2[nH]c3ccc(C4CCNCC4)cc3c2C(C)C)cn2cnnc12 [Example 11, 6-(3-isopropyl-5-(piperidin-4-yl)-1H-indol-2-yl)-8-methoxy-[1,2,4]triazolo[4,3-a]pyridine] | 563 | 6.2 | 74
CNC(=O)CN1CCC(c2ccc3[nH]c(-c4ccc5nncn5c4C)c(C(C)C)c3c2)CC1 [Example 24, 2-(4-(3-isopropyl-2-(5-methyl-[1,2,4]triazolo[4,3-a]pyridin-6-yl)-1H-indol-5-yl)piperidin-1-yl)-N-methylacetamide] | 8930 | 40.8 | 31.9
CNC(=O)CN1CCC(c2ccc3[nH]c(-c4ccc5nncn5c4)c(C(C)C)c3c2)CC1 [Example 13, 2-(4-(2-([1,2,4]triazolo[4,3-a]pyridin-6-yl)-3-isopropyl-1H-indol-5-yl)piperidin-1-yl)-N-methylacetamide] | 1110 | 6.8 | 98

Other lines, results leading:

IC50 [1] [nM] | IC50 [2] [nM] | IC50 [3] [nM] | Molecule
2220 | 1.7 | 8.3 | Cc1c(-c2[nH]c3ccc(C4CCN(C(C)C)CC4)cc3c2C(C)C)cn2cnnc2c1C [Example 99, 6-(3-isopropyl-5-(1-isopropylpiperidin-4-yl)-1H-indol-2-yl)-7,8-dimethyl-[1,2,4]triazolo [4,3-a]pyridine]
908 | 1.2 | 1.7 | Cc1cc(-c2[nH]c3ccc(C4CCN(Cc5ccn(C)n5)CC4)cc3c2C(C)C)cn2cnnc12 [Example 74, 6-(3-isopropyl-5-(1-((1-methyl-1H-pyrazol-3-yl)methyl)piperidin-4-yl)-1H-indol-2-yl)-8-methyl-[1,2,4]triazolo[4,3-a]pyridine]
1000 | 2.8 | 31.8 | Cc1c(-c2[nH]c3ccc(C4CCN(CC#N)CC4)cc3c2C(C)C)cn2cnnc2c1C [Example 51, 2-(4-(2-(7,8-dimethyl-[1,2,4]triazolo[4,3-a]pyridin-6-yl)-3-isopropyl-1H-indol-5-yl)piperidin-1-yl)acetonitrile]
1040 | 0.6 | 3 | Cc1cc(-c2[nH]c3ccc(C4CCN(C5CCOCC5)CC4)cc3c2C(C)C)cn2cnnc12 [Example 69, 6-(3-isopropyl-5-(1-(tetrahydro-2H-pyran-4-yl)piperidin-4-yl)-1H-indol-2-yl)-8-methyl-[1,2,4]triazolo[4,3-a]pyridine]
5840 | 0.7 | 3 | Cc1cc(-c2[nH]c3ccc(C4CCN(CCS(C)(=O)=O)CC4)cc3c2C(C)C)cn2cnnc12 [Example 35, 6-(3-isopropyl-5-(1-(2-(methylsulfonyl)ethyl)piperidin-4-yl)-1H-indol-2-yl)-8-methyl-[1,2,4] triazolo[4,3-a]pyridine]
2900 | 1.7 | 4.3 | Cc1c(-c2[nH]c3ccc(C4CCN(CC(C)(C)O)CC4)cc3c2C(C)C)cn2cnnc2c1C [Example 60, 1-(4-(2-(7,8-dimethyl-[1,2,4]triazolo[4,3-a]pyridin-6-yl)-3-isopropyl-1H-indol-5-yl)piperidin-1-yl)-2-methylpropan-2-ol]
